Measured values: ChEMBL document CHEMBL1777785, “A novel approach for predicting P-glycoprotein (ABCB1) inhibition using molecular interaction fields” (J Med Chem, 2011)

target: T1, ATP-dependent translocase ABCB1 (Homo sapiens, UniProt P08183); settings: l5178, 20 min, 100 µM
T1 sequence (P08183 whole entry): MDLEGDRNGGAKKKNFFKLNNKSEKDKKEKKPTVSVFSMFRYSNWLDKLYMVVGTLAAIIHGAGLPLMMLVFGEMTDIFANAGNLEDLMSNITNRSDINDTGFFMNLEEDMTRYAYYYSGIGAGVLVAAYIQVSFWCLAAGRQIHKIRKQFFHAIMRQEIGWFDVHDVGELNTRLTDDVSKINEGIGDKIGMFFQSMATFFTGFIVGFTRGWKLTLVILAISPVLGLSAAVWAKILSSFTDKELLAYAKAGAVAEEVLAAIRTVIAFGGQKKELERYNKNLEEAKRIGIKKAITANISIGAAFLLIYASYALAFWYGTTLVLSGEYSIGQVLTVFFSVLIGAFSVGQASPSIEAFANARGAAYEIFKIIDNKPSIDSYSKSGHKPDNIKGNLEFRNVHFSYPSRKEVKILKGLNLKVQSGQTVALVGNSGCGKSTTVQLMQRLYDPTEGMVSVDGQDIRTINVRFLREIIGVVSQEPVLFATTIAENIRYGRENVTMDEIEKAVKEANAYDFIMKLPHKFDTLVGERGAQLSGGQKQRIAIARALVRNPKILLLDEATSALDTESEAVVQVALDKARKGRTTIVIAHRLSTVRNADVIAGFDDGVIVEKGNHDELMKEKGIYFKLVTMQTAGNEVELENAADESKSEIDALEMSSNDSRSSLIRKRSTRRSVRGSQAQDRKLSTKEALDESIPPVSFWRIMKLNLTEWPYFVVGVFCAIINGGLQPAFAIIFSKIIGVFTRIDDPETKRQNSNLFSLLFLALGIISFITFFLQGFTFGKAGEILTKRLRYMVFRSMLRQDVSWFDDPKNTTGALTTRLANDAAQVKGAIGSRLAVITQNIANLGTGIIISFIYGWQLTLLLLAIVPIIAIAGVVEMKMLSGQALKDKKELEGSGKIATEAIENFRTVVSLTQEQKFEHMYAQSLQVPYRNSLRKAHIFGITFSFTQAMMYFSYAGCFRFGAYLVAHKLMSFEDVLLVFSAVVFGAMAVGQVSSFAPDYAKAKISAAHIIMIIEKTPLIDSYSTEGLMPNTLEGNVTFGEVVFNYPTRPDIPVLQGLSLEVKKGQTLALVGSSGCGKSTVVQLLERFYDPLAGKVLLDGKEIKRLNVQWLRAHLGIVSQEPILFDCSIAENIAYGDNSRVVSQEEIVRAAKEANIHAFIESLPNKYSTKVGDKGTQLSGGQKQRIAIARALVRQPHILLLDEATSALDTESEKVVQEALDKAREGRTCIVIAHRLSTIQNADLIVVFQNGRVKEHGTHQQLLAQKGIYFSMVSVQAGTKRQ

Alpha max | Compound
0.19 | O=C1Cc2cc(CCN3CCN(c4nsc5ccccc45)CC3)c(Cl)cc2N1 [ZIPRASIDONE]
0 | CC(C)[C@H]1CC[C@H](C(=O)N[C@H](Cc2ccccc2)C(=O)O)CC1 [NATEGLINIDE]
0 | CC1(C)S[C@@H]2[C@H](NC(=O)[C@H](C(=O)O)c3ccsc3)C(=O)N2[C@H]1C(=O)O [TICARCILLIN]
0.74 | O=C1NCCN1CCN1CCC(c2cn(-c3ccc(F)cc3)c3ccc(Cl)cc23)CC1 [SERTINDOLE]
0.35 | CCOc1cc(CC(=O)N[C@@H](CC(C)C)c2ccccc2N2CCCCC2)ccc1C(=O)O [REPAGLINIDE]

The remaining lines, values behind:

Compound | Alpha max
C=CCc1ccccc1OCC(O)CNC(C)C (centres undefined) [ALPRENOLOL] | 0.05
O=C1CCc2ccc(OCCCCN3CCN(c4cccc(Cl)c4Cl)CC3)cc2N1 [ARIPIPRAZOLE] | 0.99
CCN(CC)CCCN(c1ccccc1)C1Cc2ccccc2C1 [APRINDINE] | 0.16

target: T1, ATP-dependent translocase ABCB1; settings: not given

IC50 [µM] | Compound
6.5 | O=C1NCCN1CCN1CCC(c2cn(-c3ccc(F)cc3)c3ccc(Cl)cc23)CC1 [SERTINDOLE]
